Source: patent US8852590B2, “Compositions and methods for treating cancer” (Merck Sharp & Dohme Corp., priority 2009, dated 2014)
Entries after “also recorded” stand apart in the source; their conditions may differ.

Tests used:
[1] = system: A549 human NSCLC xenograft; assay: A549 mutant-KRAS lung xenograft model; format: in vivo, athymic Nude-Foxn1nu mice
Protocol: Method: 2.5×10^6 A549 human NSCLC cells were injected subcutaneously into the right flank of 4-6 week old athymic Nude-Foxn1nu mice (Charles River Laboratories). When tumors reached a size of ˜300 mm3 (Length*Width*Width*0.5), mice were randomized into treatment groups. […] Animals were weighed and tumor volumes were determined by calipering 2 times per week during the study and at termination. Tumor weight was determined at termination. On day 21 Animals were sacrificed by CO2 asphyxiation. Mice were sacrificed 24 hr after the final dose. At time of sacrifice, the tissue samples were collected and processed.

[2] = system: AKT-P; conditions: treatment of patients, O'Reilly et al 2006; cited from earlier work
[3] = system: PI3 Kinase signaling pathway in H2122 cells; assay: Western blot of PI3K pathway signaling in H2122 cells; format: cell-based, human; conditions: 4 hrs
Protocol: Methods: All the NSCLC cell lines were obtained from ATCC and maintained in RPMI 1640 with 10% fetal bovine serum (Invitrogen). […] Samples were western blotted with indicated total or phosphospecific antibodies followed by a secondary antibody (Cell Signaling Technology, CST) and then incubated with SuperSignal chemiluminescence substrate (Pierce). The blots were then exposed to a Kodak Biomax Light Film. The antibodies against ERK, p-ERK (Thr202/Tyr204), AKT and p-AKT (Ser473), IGF S6K & P-S6K (T389), IRS1 & P-IRS1 (S302) and actin were obtained from CST. Cell cycle analysis was performed in H2122 cells following 24 hr treatment with indicated compounds (see above). One million cells were permiabilized and stained with propidium Iodide (PI) as described by the manufacturer (BD Pharmingen #550825). PI binds to both DNA and RNA, so the latter was removed by digestion with ribonucleases (RNase A). The content of DNA as determined by flow cytometry, can reveal useful information about the cell cycle. Cells in G2 and M phases of the cell cycle have double the DNA content of those in G0 and G1 phases. Cells in S phase have a DNA content lying between these extremes. PI is detected in the orange range of the spectrum using a 562-588 nm band pass filter using a flow cytometer. […] Both compounds act by inhibiting oncogenic signaling through the PI3 Kinase signaling pathway. […]

[4] = system: A549 cell line; assay: Soft agar colony formation assay, A549; format: cell-based, human; conditions: Ridaforolimus 10 nM, MK-0646 10 ug/ml, no supplemented IGF
Protocol: (§1) The colony formation assay was performed in the absence of supplemented IGF. […] No significant correlation of KRAS-status and response to the combination was observed.
(§2) Methods: Soft agar assays were conducted in 96 well glass bottom plates (MatriCal). Cells were seeded at a concentration of 3,000-9,000 cells per well in 100 μl RMPI 1640 supplemented with 14% FBS and 0.3% (w/v) SeaPlaque Agarose (Lonza Rockland, Inc) on top of a bottom layer of consisting of the same culture media supplemented with 0.8% agarose. Compounds were added in 100 μl of culture media supplemented after agarose had solidified. Cells were incubated for 7-14 days before staining overnight with LavaCell (Active Motif). Colonies were quantified using an Isocyte™ laser scanning cytometer. […] The RTK status was evaluated in total protein lysates using the P-RTK arrays (R&D biosciences) as described by the manufacturer. The activating mutations in KRAS were identified from published cancer genome data bases (Sanger).

[5] = system: H2122 cell line; assay: Soft agar colony formation assay, H2122; format: cell-based, human; conditions: Ridaforolimus 10 nM, MK-0646 10 ug/ml, no supplemented IGF
Protocol: as §1, §2

[6] = system: noninfected Sf9 insect cells; assay: FACScan reactivity of MAb on noninfected Sf9 insect cells; format: binding
Protocol: For the immunization stage, mice were injected twice, by the subcutaneous route, with 8 μg of recombinant IGF-IR. Three days before the fusion of the cells of the […] with the cells of the murine myeloma Sp2OAg14, the mice were stimulated by an intravenous injection of 3 μg of the recombinant receptor. Fourteen days after the fusion, the supernatants of hybridomas were screened by ELISA, on plates sensitized by recombinant IGF-IR. The hybridomas whose supernatants were found positive were conserved and amplified before being tested on the FACS can so as to verify that the antibodies produced were likewise capable of recognizing native IGF-IR. In order to do this, MCF-7 cells from an estrogen-dependent tumor of the breast overexpressing IGF-IR were incubated with each of the culture supernatants produced by the hybridomas selected in ELISA. […] At this stage of the selection, only the hybridomas secreting MAb at the same time recognizing the recombinant receptor and the native receptor were selected and cloned. The MAb secreted by these hybridomas were produced and then purified before being tested on the FACScan, according to the method described above, on […] expressing IGF-IR or IR in order to eliminate the hybridomas at the same time recognizing the two receptors.

[7] = system: MCF-7 cells; assay: IGF-I induced proliferation of MCF-7 cells (tritiated thymidine incorporation); format: cell-based; conditions: antibody 10 μg/ml; IGF-I 1 to 50 ng/ml
Text: The cell proliferation is estimated by following on the […] the incorporation of tritiated thymidine by the cells. The results are expressed as a proliferative index.

[8] = system: MCF-7 tumor; assay: Established MCF-7 tumor model in nude mice; format: in vivo; conditions: 250 μg/dose/mouse twice per week, 5 to 6 weeks
Protocol: The in vivo selection was carried out in an established tumor model. In order to do this, nude mice received a subcutaneous implant of slow-release estrogen, indispensable for the taking of the tumor in a murine model. Twenty-four hours after implantation of the estrogens, 5.10^6 MCF-7 cells are grafted onto the right flank of the mouse subcutaneously. Five days after this cell graft, the tumors are measurable and batches of 6 mice are formed at random. The treatment of the mice is carried out twice per week, during 5 to 6 weeks, at the dose of 250 μg/dose/mouse. In the control group, the mice are treated in the same fashion with a murine control isotype.

[9] = system: H1703; assay: Soft agar colony formation assay, H1703; format: cell-based, human; conditions: H1703, low expression of IGF1R
Protocol: as §1, §2

C#Cc1cccc(Nc2ncnc3cc(OCCOC)c(OCCOC)cc23)c1 [Erlotinib]
tumor growth inhibition ([1]; Erlotinib treated group compared to vehicle): No significant growth inhibition; also recorded: did not result in any appreciable tumor growth inhibition

CO[C@H]1C[C@@H]2CC[C@@H](C)[C@@](O)(O2)C(=O)C(=O)N2CCCC[C@H]2C(=O)O[C@H]([C@H](C)C[C@@H]2CC[C@@H](OCCO)[C@H](OC)C2)CC(=O)[C@H](C)/C=C(\C)[C@@H](O)[C@@H](OC)C(=O)[C@H](C)C[C@H](C)/C=C/C=C/C=C/1C [RAD001]
AKT-P level in patients [2]: elevated AKT-P

CO[C@H]1C[C@@H]2CC[C@@H](C)[C@@](O)(O2)C(=O)C(=O)N2CCCC[C@H]2C(=O)O[C@H]([C@H](C)C[C@@H]2CC[C@@H](OP(C)(C)=O)[C@H](OC)C2)CC(=O)[C@H](C)/C=C(\C)[C@@H](O)[C@@H](OC)C(=O)[C@H](C)C[C@H](C)/C=C/C=C/C=C/1C [Ridaforolimus, Dimethyl-Phosphinic Acid C-43 Rapamycin Ester]
phosphorylation of S6K ([3]; Ridaforolimus 10 nM): preventing | soft agar growth inhibition [4]: only limited single agent activity | soft agar growth inhibition [5]: only limited single agent activity | Relative tumor growth ([1]; Rida 0.1mpk, 3 weeks, end of treatment): 35.01%

7C10: murine monoclonal antibody secreted by hybridoma deposited at CNCM, IgG1, directed against IGF-IR [Example 7C10]
MFI (Mean fluorescence intensity) [6]: 8.6 | inhibition of proliferation of MCF-7 cells induced by IGF-I [7]: significantly inhibits | inhibition of tumor growth [8]: very significant inhibition

MK-0646: humanized antibody binding IGF-1R as well as the IR/IGF-1 hybrid receptor
AKT phosphorylation ([3]; MK-0646 10 ng/ml): preventing | soft agar growth inhibition [4]: only limited single agent activity | soft agar growth inhibition [5]: only limited single agent activity | soft agar single agent sensitivity [9]: resistant
